The values that follow come from paper PMC8838590, “Recognition of Dimethylarginine Analogues by Tandem Tudor Domain Protein Spindlin1” (Molecules, 2022).

One test has as its target T1, Spindlin1 (SPIN1_49-262) (Homo sapiens, UniProt Q9Y657).
T1 construct: SPIN1_49-262 was expressed and purified as described previously; His tag; made in house; host or cells: E. coli BL21
The experiment in a line: Isothermal titration calorimetry of 15-mer H3K4me3X8 peptides binding to Spindlin1. The following applies: ITC; for ΔH° / −TΔS°: 25.0 °C, 20 mM Tris, 100 mM NaCl pH 8.0, mean ± SD of 3 repeated ITC experiments. As for the experimental part: Spindlin1 was dialysed against ITC buffer containing 100 mM NaCl and 20 mM Tris HCl buffer (pH 8.0).
SPIN1_49-262 was expressed and purified as described previously. Briefly, His-tagged SPIN1 was expressed in E.coli strain BL21 at 37 °C until OD600 = 2.0. Protein expression was induced by the addition of 0.1 mM IPTG, followed by incubation at 18 °C overnight. Bacteria were harvested by centrifugation and subsequent resuspension of the pellet in buffer containing 50 mM Hepes pH 7.5, 500 mM NaCl, 10 mM Imidazole, 5% glycerol, 0.5 mM TCEP, and a protease inhibitor cocktail (Sigma, St. Louis, MO, USA). After lysis and centrifugation, His-tagged SPIN1 was affinity purified by Ni^2+-NTA-agarose chromatography (Cytiva, Marlborough, MA, USA) applying a gradient of imidazole. Subsequent size exclusion chromatography (Superdex 75, Cytiva) was performed with buffer containing 10 mM Hepes pH 7.5, 500 mM NaCl, 5% glycerol, and 0.5 mM TCEP.
Isothermal titration calorimetry was performed at 25 °C on a fully automated Microcal Auto-iTC200 (GE Healthcare Life Sciences, Marlborough, MA, USA). SPIN1_49-262 was dialysed against ITC buffer containing 20 mM Tris, 100 mM NaCl pH 8.0. Titrations were carried out with an initial injection of 0.5 μL, followed by 19 injections of 2 μL at a total concentration of 20 μM SPIN1_49-262 and 150-370 μM peptide. Fitting and analyses of the acquired titration curves were performed with Origin 6.0 (Microcal Inc., Northampton, MA, USA) using the One Set of Binding Sites model.

Test [1] has as its target H3K4me3R8me2a 10-mer peptide (Homo sapiens) (UniProt P68431). To be noted: cited from earlier work.
The target of test [2] is H3K4me3R8me2s peptide (Homo sapiens) (UniProt P68431). To be noted: cited from earlier work.
The target in test [3] is H3K4me3R8me1 peptide (Homo sapiens) (UniProt P68431). The following applies: cited from earlier work.
The target in test [4] is H3K4me3K9me3 peptide (Homo sapiens) (UniProt P68431). To be noted: cited from earlier work.
In test [5] the target is H4K20me3 peptide (Homo sapiens) (UniProt P62805). The following applies: cited from earlier work.

Starred links: 1 amine or outer side, 2 acyl side, 3 side chain; linkers in the order of their positions; H or OH if unused. Non-standard residues stand in square brackets, D forms with d. Residues, ends and D or L forms follow the SMILES beside them. Groups on a side chain read outwards from the residue. X3 = N=C(NCCC[C@H](N[*:1])C(=O)[*:2])N1CCCCC1; X2 = CCN(CC)C(=N)NCCC[C@H](N[*:1])C(=O)[*:2]; X4 = N=C(NCCC[C@H](N[*:1])C(=O)[*:2])N1CCCC1; X5 = CN(C)C(=N)NCCCC[C@H](N[*:1])C(=O)[*:2]; X6 = CCN(C)C(=N)NCCC[C@H](N[*:1])C(=O)[*:2]; X1 = CN(C)C(=N)NCC[C@H](N[*:1])C(=O)[*:2]; Lys(Me3) = C[N+](C)(C)CCCC[C@H](N)C(=O)O; Orn = NCCC[C@H](N)C(=O)O; CO = O=C([*:1])[*:2]

T1 sequence (Q9Y657 49-262): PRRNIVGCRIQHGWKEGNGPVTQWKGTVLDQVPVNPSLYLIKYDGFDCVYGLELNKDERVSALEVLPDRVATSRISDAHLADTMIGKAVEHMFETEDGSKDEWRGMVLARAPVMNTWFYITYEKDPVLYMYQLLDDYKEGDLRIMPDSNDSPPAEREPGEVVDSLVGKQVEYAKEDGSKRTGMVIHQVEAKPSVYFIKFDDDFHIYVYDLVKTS
Chain of Spindlin1 (Q9Y657 whole entry): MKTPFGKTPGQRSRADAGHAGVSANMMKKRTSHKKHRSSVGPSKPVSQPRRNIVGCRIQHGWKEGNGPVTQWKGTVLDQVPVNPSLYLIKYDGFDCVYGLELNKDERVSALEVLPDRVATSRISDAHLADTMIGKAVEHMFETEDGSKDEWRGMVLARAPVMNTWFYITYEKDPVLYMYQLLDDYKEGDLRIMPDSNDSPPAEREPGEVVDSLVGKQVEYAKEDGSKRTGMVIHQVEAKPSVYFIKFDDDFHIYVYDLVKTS

On to `C[C@H](N)C(=O)N[C@@H](CCCNC(=N)N)C(=O)N[C@H](C(=O)N[C@@H](CCCC[N+](C)(C)C)C(=O)N[C@@H](CCC(N)=O)C(=O)N[C@H](C(=O)N[C@@H](C)C(=O)N[C@@H](CCCNC(=O)N(C)C)C(=O)N[C@@H](CCCCN)C(=O)N[C@@H](CO)C(=O)N[C@H](C(=O)NCC(=O)NCC(=O)N[C@@H](CCCCN)C(=O)N[C@@H](C)C(N)=O)[C@@H](C)O)[C@@H](C)O)[C@@H](C)O` [H3K4me3Cit8me2] (H-ART[Lys(Me3)]QTA[Orn]([CO-NMe2])KSTGGKA-NH2), for which, at Spindlin1 (SPIN1_49-262) (SD), the “ΔH°” value was -15.6 ± 0.3 kcal/mol and the “−TΔS°” value was 5.9 ± 0.2 kcal/mol. On Spindlin1 (SPIN1_49-262) (relative to H3K4me3R8me2a), the “ΔΔH°” value turned out to be 1.7 kcal/mol and the “−TΔΔS°” value was -1.1 kcal/mol.

Turning to `CCN(CC)C(=N)NCCC[C@H](NC(=O)[C@H](C)NC(=O)[C@@H](NC(=O)[C@H](CCC(N)=O)NC(=O)[C@H](CCCC[N+](C)(C)C)NC(=O)[C@@H](NC(=O)[C@H](CCCNC(=N)N)NC(=O)[C@H](C)N)[C@@H](C)O)[C@@H](C)O)C(=O)N[C@@H](CCCCN)C(=O)N[C@@H](CO)C(=O)N[C@H](C(=O)NCC(=O)NCC(=O)N[C@@H](CCCCN)C(=O)N[C@@H](C)C(N)=O)[C@@H](C)O` [H3K4me3R8et2a] (H-ART[Lys(Me3)]QTA[X2]KSTGGKA-NH2), at Spindlin1 (SPIN1_49-262) (SD), the “ΔH°” value was -19.3 ± 0.6 kcal/mol and the “−TΔS°” value worked out at 9.3 ± 0.6 kcal/mol.

`CCN(C)C(=N)NCCC[C@H](NC(=O)[C@H](C)NC(=O)[C@@H](NC(=O)[C@H](CCC(N)=O)NC(=O)[C@H](CCCC[N+](C)(C)C)NC(=O)[C@@H](NC(=O)[C@H](CCCNC(=N)N)NC(=O)[C@H](C)N)[C@@H](C)O)[C@@H](C)O)C(=O)N[C@@H](CCCCN)C(=O)N[C@@H](CO)C(=O)N[C@H](C(=O)NCC(=O)NCC(=O)N[C@@H](CCCCN)C(=O)N[C@@H](C)C(N)=O)[C@@H](C)O` [H3K4me3R8etme] (H-ART[Lys(Me3)]QTA[X6]KSTGGKA-NH2): on Spindlin1 (SPIN1_49-262) (SD), the “ΔH°” value was -20.8 ± 0.6 kcal/mol and the “−TΔS°” value was 11.2 ± 0.6 kcal/mol.

In the case of `C[C@H](N)C(=O)N[C@@H](CCCNC(=N)N)C(=O)N[C@H](C(=O)N[C@@H](CCCC[N+](C)(C)C)C(=O)N[C@@H](CCC(N)=O)C(=O)N[C@H](C(=O)N[C@@H](C)C(=O)N[C@@H](CCCNC(=N)N(C)C)C(=O)N[C@@H](CCCCN)C(=O)N[C@@H](CO)C(=O)N[C@H](C(=O)NCC(=O)NCC(=O)N[C@@H](CCCCN)C(=O)N[C@@H](C)C(N)=O)[C@@H](C)O)[C@@H](C)O)[C@@H](C)O` [H3K4me3R8me2a], the “ΔH°” value on Spindlin1 (SPIN1_49-262) was -17.3 kcal/mol; at Spindlin1 (SPIN1_49-262) (SD), -17.3 ± 1.9 kcal/mol. The entries for the “−TΔS°” value on Spindlin1 (SPIN1_49-262) and at Spindlin1 (SPIN1_49-262) (SD) were 7.0 kcal/mol and 7.0 ± 1.9 kcal/mol, respectively.

As for `C[C@H](N)C(=O)N[C@@H](CCCNC(=N)N)C(=O)N[C@H](C(=O)N[C@@H](CCCC[N+](C)(C)C)C(=O)N[C@@H](CCC(N)=O)C(=O)N[C@H](C(=O)N[C@@H](C)C(=O)N[C@@H](CCCNC(=N)N1CCCCC1)C(=O)N[C@@H](CCCCN)C(=O)N[C@@H](CO)C(=O)N[C@H](C(=O)NCC(=O)NCC(=O)N[C@@H](CCCCN)C(=O)N[C@@H](C)C(N)=O)[C@@H](C)O)[C@@H](C)O)[C@@H](C)O` [H3K4me3R8pip] (H-ART[Lys(Me3)]QTA[X3]KSTGGKA-NH2), on Spindlin1 (SPIN1_49-262) (SD), the “ΔH°” value was -20.9 ± 0.3 kcal/mol and the “−TΔS°” value is on record as 11.2 ± 0.1 kcal/mol.

Turning to `C[C@H](N)C(=O)N[C@@H](CCCNC(=N)N)C(=O)N[C@H](C(=O)N[C@@H](CCCC[N+](C)(C)C)C(=O)N[C@@H](CCC(N)=O)C(=O)N[C@H](C(=O)N[C@@H](C)C(=O)N[C@@H](CCCNC(=N)N1CCCC1)C(=O)N[C@@H](CCCCN)C(=O)N[C@@H](CO)C(=O)N[C@H](C(=O)NCC(=O)NCC(=O)N[C@@H](CCCCN)C(=O)N[C@@H](C)C(N)=O)[C@@H](C)O)[C@@H](C)O)[C@@H](C)O` [H3K4me3R8pyr] (H-ART[Lys(Me3)]QTA[X4]KSTGGKA-NH2), on Spindlin1 (SPIN1_49-262) (SD), the “ΔH°” value is -22.5 ± 0.4 kcal/mol and the “−TΔS°” value turned out to be 13.0 ± 0.5 kcal/mol.

In the case of `C[C@H](N)C(=O)N[C@@H](CCCNC(=N)N)C(=O)N[C@H](C(=O)N[C@@H](CCCC[N+](C)(C)C)C(=O)N[C@@H](CCC(N)=O)C(=O)N[C@H](C(=O)N[C@@H](C)C(=O)N[C@@H](CCCCNC(=N)N(C)C)C(=O)N[C@@H](CCCCN)C(=O)N[C@@H](CO)C(=O)N[C@H](C(=O)NCC(=O)NCC(=O)N[C@@H](CCCCN)C(=O)N[C@@H](C)C(N)=O)[C@@H](C)O)[C@@H](C)O)[C@@H](C)O` [H3K4me3hR8me2a] (H-ART[Lys(Me3)]QTA[X5]KSTGGKA-NH2), on Spindlin1 (SPIN1_49-262) (SD), the “ΔH°” value was -20.9 ± 0.7 kcal/mol and the “−TΔS°” value stood at 11.0 ± 0.7 kcal/mol.

With `C[C@H](N)C(=O)N[C@@H](CCCNC(=N)N)C(=O)N[C@H](C(=O)N[C@@H](CCCC[N+](C)(C)C)C(=O)N[C@@H](CCC(N)=O)C(=O)N[C@H](C(=O)N[C@@H](C)C(=O)N[C@@H](CCNC(=N)N(C)C)C(=O)N[C@@H](CCCCN)C(=O)N[C@@H](CO)C(=O)N[C@H](C(=O)NCC(=O)NCC(=O)N[C@@H](CCCCN)C(=O)N[C@@H](C)C(N)=O)[C@@H](C)O)[C@@H](C)O)[C@@H](C)O` [H3K4me3nR8me2a] (H-ART[Lys(Me3)]QTA[X1]KSTGGKA-NH2), on Spindlin1 (SPIN1_49-262) (SD), the “ΔH°” value is -16.9 ± 1.3 kcal/mol and the “−TΔS°” value came to 6.8 ± 1.2 kcal/mol.

As for Spindlin1 (from UniProt Q9Y657), the Kd in test [1] is 45 nM; in test [2], 66 nM; in test [3], 139 nM; in test [4], 16 nM; in test [5], 800 nM.
